In publication PMC10525516, “Novel NADPH Oxidase-2 Inhibitors as Potential Anti-Inflammatory and Neuroprotective Agents” (Antioxidants, 2023):
Read-outs that look alike come from different tables or passages of the source.

Legend:
[1] = Short-term (seven day) in vivo toxicity in mice; parameters: species or system C57BL/6 mice; conditions: 20 mg/kg i.p. daily for seven days
Description: All animal experiments were performed according to protocols and guidelines approved by the Emory University Animal Care and Use Committee. The in vivo toxicity of TG15-132 was assessed using C57BL/6 mice (cat. no. 027, Charles River Laboratories, Wilmington, MA, USA). Animals were injected daily (i.p.) with saline, vehicle (DMSO 10%, PEG400 30%, water 60%), or 20 mg/kg of TG15-132 in vehicle for seven days, with body weight recorded each day. At the end of treatment, organs were harvested to study organ weight loss, and blood was collected from each mouse via cardiac puncture, and serum was isolated. Serum was analyzed for kidney function using blood urea nitrogen and creatinine, liver function using alanine amino transferase, and tissue damage using lactate dehydrogenase.

Nox2 = target: T1, Nox2 (Homo sapiens, UniProt P04839); test: Rapid HPLC analysis of HE oxidation (2-OH-E+) for O2•− production by activated dHL60 cells; type: cell-based; conditions: 1 h incubation after PMA, Figure 5D,E
T1 construct: endogenous in cells
T1 sequence (P04839 2-570 limits assumed): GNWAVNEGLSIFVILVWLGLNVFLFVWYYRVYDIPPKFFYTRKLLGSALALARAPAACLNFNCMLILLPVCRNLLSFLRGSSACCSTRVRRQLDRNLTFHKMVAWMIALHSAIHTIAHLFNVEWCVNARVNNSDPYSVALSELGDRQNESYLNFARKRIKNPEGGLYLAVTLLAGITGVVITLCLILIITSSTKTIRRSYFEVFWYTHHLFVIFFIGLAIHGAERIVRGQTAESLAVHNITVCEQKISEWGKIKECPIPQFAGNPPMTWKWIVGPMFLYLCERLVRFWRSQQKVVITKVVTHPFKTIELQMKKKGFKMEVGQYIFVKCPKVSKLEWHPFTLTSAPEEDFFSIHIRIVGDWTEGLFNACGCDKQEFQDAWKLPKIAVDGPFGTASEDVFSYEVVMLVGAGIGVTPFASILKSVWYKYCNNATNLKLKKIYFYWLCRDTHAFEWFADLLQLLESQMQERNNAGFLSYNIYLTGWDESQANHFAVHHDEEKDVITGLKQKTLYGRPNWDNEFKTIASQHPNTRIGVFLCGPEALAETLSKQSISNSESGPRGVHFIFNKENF
T1 sequence (P13498 2-195 partner limits assumed): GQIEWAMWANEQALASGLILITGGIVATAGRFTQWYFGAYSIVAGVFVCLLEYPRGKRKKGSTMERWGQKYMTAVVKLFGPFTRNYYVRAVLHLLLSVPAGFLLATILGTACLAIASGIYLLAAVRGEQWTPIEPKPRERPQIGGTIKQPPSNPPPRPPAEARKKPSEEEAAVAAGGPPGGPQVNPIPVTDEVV
Description: For high-performance liquid chromatography (HPLC)-based analyses of superoxide production by activated dHL60 cells, the cells (0.8 mL, 2 × 10^5 cells/mL) were pretreated with inhibitors for 30 min, as described above, followed by the addition of 200 µL of the mixture of PMA (5 µM) and HE (50 µM); then, they were incubated for 1 h at 37 °C in the dark. Next, 0.5 mL aliquots of the cell suspensions were transferred into 1.5 mL microcentrifuge tubes prefilled with 10 µL of a mixture of 3,8-diamino-6-phenylphenanthridine (50 µM, used as an internal standard), superoxide dismutase, and catalase (5 mg/mL and 5 kU/mL, respectively, used to stop probe oxidation), and the tubes were centrifugated (5 min, 3000× g) to pellet the cells. Clear supernatants (0.2 mL) were transferred into HPLC vials and analyzed for HE, 2-hydroxyethidium (2–OH–E^+), ethidium (E^+), and diethidium (E^+–E^+) content, as described previously. Briefly, an Agilent 1100 HPLC system equipped with an Ascentis Express Phenyl-Hexyl column (50 mm × 4.6 mm, 2.7 µm, Supelco, Bellefonte, PA, USA) and absorption and fluorescence detectors was used. […] Samples (25 µL) were injected, and the products were detected by monitoring absorbance (290 and 370 nm) and fluorescence (exc. 370 nm, emi. 565 nm) signals.

[2] = Plasma and brain pharmacokinetics in C57BL/6 mice; type: in vivo; conditions: male, C57BL/6, mouse, ip, C57BL6 mice, single dose 20 mg/kg i.p.
Description: TG15-132 at a 20 mg/kg dose in a vehicle formulation of 10% DMSO, 50% PEG400, and 40% reversed osmosis-purified water (v/v) was administered to healthy male C57BL/6 mice weighing an average of 27 g by intraperitoneal (i.p.) injection. Blood samples (approximately 60 μL) were collected from the retro-orbital plexus of three animals at times 0.08, 0.25, 0.5, 1, 2, 4, 8, and 24 h after compound administration. Along with the terminal blood samples, the brain samples were also collected at the time points 0.25, 0.5, 2.0, 4.0, 8.0, and 24 h.
Blood samples were collected into labeled microtubes containing dipotassium EDTA solution (20%) as an anticoagulant. Plasma was immediately harvested from the blood by centrifugation at 4000 rpm for 10 min at 4 ± 2 °C and stored below −70 °C until bioanalysis. After isolation, brain tissue samples were rinsed three times in ice cold normal saline (for 5–10 s/rinse using ~5–10 mL normal saline in disposable petri dishes for each rinse) and dried on blotting paper. Tissue samples were homogenized using ice-cold phosphate-buffered saline (pH 7.4). The total homogenate volume (µL) was three times the tissue weight (mg). All homogenates were stored below −70 ± 10 °C until bioanalysis. Concentrations of TG15-132 in plasma and brain samples were determined by fit-for-purpose liquid chromatography with the tandem mass spectrometry method (Sai-Life, Hyderabad, India). Phoenix WinNonlin (version 8.0, Certara, Princeton, NJ, USA) was used to analyze the pharmacokinetic parameters.

With `CN(C)CCCn1c(SCCc2c[nH]c3ccccc23)nc2ccc(F)cc2c1=O` [TG15-132] the “blood urea nitrogen compared with saline-treated mice” value [1] was “significant drop”, the “weights of the lung, liver, or brain” value [1] was “no changes” and the “loss of body weight” value ([1]; marginal and nonsignificant) was 7%. The “serum injury markers (BUN, creatinine, ALT, LDH) vs vehicle” value ([1]; n = 6) was “no differences”, the “HE consumption and 2-OH-E+ formation (HPLC)” value (Nox2) was “inhibited by cell pretreatment with TG15-132 in a dose-dependent manner” and the half-life ([2]; brain, read-out: brain half-life (converted)) was 2.7 h. The Kp ([2]; brain, read-out: brain-to-plasma ratio) was > 6 and the half-life ([2]; plasma, read-out: plasma half-life (converted)) was 2.7 h.
